Assay results reported in US20230148599A1, “FUNGICIDAL MIXTURES CONTAINING PYRAZOLE DERIVATIVES” (FMC Corporation, priority 2020, published 2023).

tested on: Septoria tritici; experiment: Test A: wheat leaf blotch, preventive spray on wheat seedlings; type: in vivo; conditions: 50 ppm, 100 = 100% disease control, 0 = no control
Outline: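 Wheat seedlings sprayed to run-off with compound suspended in acetone/water with 250 ppm PEG400 surfactant, inoculated next day with Septoria tritici spores. Held 48 h saturated at 24 °C, then 17 days at 20 °C; disease rated 0–100% control relative to controls.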

Point of comparison: COc1ccc(Nc2c(-c3ccc(F)cc3Cl)c(C)nn2C)c([N+](=O)[O-])c1 [compound 119], “Test A disease control rating” value 100%. Against it:
- Cc1nn(C)c(Nc2c(F)cccc2[N+](=O)[O-])c1-c1c(F)cc(C#N)cc1F [compound 114] — the same, 100%
- Cc1nn(C)c(Nc2c(F)cc(Cl)cc2[N+](=O)[O-])c1-c1ccc(C#N)cc1Cl [compound 115] — the same, 100%
- Cc1nn(C)c(Nc2c(Cl)cc(Cl)cc2[N+](=O)[O-])c1-c1ccc(C#N)cc1Cl [compound 116] — lower, 99%
- Cc1cccc([N+](=O)[O-])c1Nc1c(-c2ccc(F)cc2Cl)c(C)nn1C [compound 117] — lower, 99%
- Cc1nn(C)c(Nc2c(F)cc(F)cc2[N+](=O)[O-])c1-c1ccc(C#N)cc1Cl [compound 120] — the same, 100%
- Cn1nc(C#N)c(-c2ccc(F)cc2Cl)c1Nc1c(F)cccc1[N+](=O)[O-] [compound 122] — the same, 100%
- Cc1nn(C)c(Nc2c(Cl)cccc2[N+](=O)[O-])c1-c1ccc(C#N)cc1Cl [compound 123] — the same, 100%
- COc1ccc(Nc2c(-c3ccc(C#N)cc3Cl)c(C)nn2C)c([N+](=O)[O-])c1 [compound 124] — the same, 100%
- Cc1nn(C)c(Nc2c(Br)cccc2[N+](=O)[O-])c1-c1ccc(C#N)cc1Cl [compound 125] — the same, 100%
- Cc1nn(C)c(Nc2ccccc2[N+](=O)[O-])c1-c1ccc(F)cc1Cl [compound 126] — lower, 98%
- CCc1nn(C)c(Nc2c(Cl)cc(Br)cc2[N+](=O)[O-])c1-c1ccc(F)cc1Cl [compound 128] — the same, 100%
- Cc1nn(C)c(Nc2cc(Cl)ccc2[N+](=O)[O-])c1-c1ccc(F)cc1Cl [compound 130] — lower, 85%

tested on: Puccinia recondita f. sp. tritici; experiment: Test B: wheat leaf rust, preventive spray on wheat seedlings; type: in vivo; conditions: 50 ppm, 100 = 100% disease control, 0 = no control
Outline: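 Wheat seedlings were sprayed to run-off with compound suspended at ppm concentrations in acetone/water containing 250 ppm PEG400. The next day they were inoculated with Puccinia recondita f. sp. tritici spores, held saturated at 20 °C for 24 h, then kept 7 days at 20 °C. Disease control was rated 0–100% relative to untreated controls.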

Point of comparison: Cc1nn(C)c(Nc2ccccc2[N+](=O)[O-])c1-c1ccc(F)cc1Cl [compound 126], “Test B disease control rating” value 85%. Against it:
- Cc1nn(C)c(Nc2c(F)cccc2[N+](=O)[O-])c1-c1c(F)cc(C#N)cc1F [compound 114] — higher, 98%
- Cc1nn(C)c(Nc2c(F)cc(Cl)cc2[N+](=O)[O-])c1-c1ccc(C#N)cc1Cl [compound 115] — higher, 100%
- Cc1nn(C)c(Nc2c(Cl)cc(Cl)cc2[N+](=O)[O-])c1-c1ccc(C#N)cc1Cl [compound 116] — higher, 99%
- Cc1cccc([N+](=O)[O-])c1Nc1c(-c2ccc(F)cc2Cl)c(C)nn1C [compound 117] — higher, 100%
- COc1ccc(Nc2c(-c3ccc(F)cc3Cl)c(C)nn2C)c([N+](=O)[O-])c1 [compound 119] — higher, 100%
- Cc1nn(C)c(Nc2c(F)cc(F)cc2[N+](=O)[O-])c1-c1ccc(C#N)cc1Cl [compound 120] — higher, 100%
- Cn1nc(C#N)c(-c2ccc(F)cc2Cl)c1Nc1c(F)cccc1[N+](=O)[O-] [compound 122] — higher, 100%
- Cc1nn(C)c(Nc2c(Cl)cccc2[N+](=O)[O-])c1-c1ccc(C#N)cc1Cl [compound 123] — higher, 97%
- COc1ccc(Nc2c(-c3ccc(C#N)cc3Cl)c(C)nn2C)c([N+](=O)[O-])c1 [compound 124] — higher, 100%
- Cc1nn(C)c(Nc2c(Br)cccc2[N+](=O)[O-])c1-c1ccc(C#N)cc1Cl [compound 125] — higher, 96%
- CCc1nn(C)c(Nc2c(Cl)cc(Br)cc2[N+](=O)[O-])c1-c1ccc(F)cc1Cl [compound 128] — higher, 98%
- Cc1nn(C)c(Nc2cc(Cl)ccc2[N+](=O)[O-])c1-c1ccc(F)cc1Cl [compound 130] — higher, 86%

tested on: Blumeria graminis f. sp. tritici; experiment: Test C: wheat powdery mildew, preventive spray on wheat seedlings; type: in vivo; conditions: 50 ppm, 100 = 100% disease control, 0 = no control
Outline: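 Seedlings were sprayed to run-off with compound suspended (ppm) in 50/50 acetone–water containing 250 ppm PEG400, then spore-dust inoculated the following day. After 8 days at 20° C, disease control was rated visually from 0 to 100 against controls.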

Point of comparison: Cc1nn(C)c(Nc2c(F)cc(F)cc2[N+](=O)[O-])c1-c1ccc(C#N)cc1Cl [compound 120], “Test C disease control rating” value 89%. Against it:
- Cc1nn(C)c(Nc2c(F)cccc2[N+](=O)[O-])c1-c1c(F)cc(C#N)cc1F [compound 114] — higher, 99%
- Cc1nn(C)c(Nc2c(F)cc(Cl)cc2[N+](=O)[O-])c1-c1ccc(C#N)cc1Cl [compound 115] — higher, 94%
- Cc1nn(C)c(Nc2c(Cl)cc(Cl)cc2[N+](=O)[O-])c1-c1ccc(C#N)cc1Cl [compound 116] — lower, 56%
- Cc1cccc([N+](=O)[O-])c1Nc1c(-c2ccc(F)cc2Cl)c(C)nn1C [compound 117] — higher, 95%
- COc1ccc(Nc2c(-c3ccc(F)cc3Cl)c(C)nn2C)c([N+](=O)[O-])c1 [compound 119] — higher, 99%
- Cn1nc(C#N)c(-c2ccc(F)cc2Cl)c1Nc1c(F)cccc1[N+](=O)[O-] [compound 122] — higher, 94%
- Cc1nn(C)c(Nc2c(Cl)cccc2[N+](=O)[O-])c1-c1ccc(C#N)cc1Cl [compound 123] — lower, 81%
- COc1ccc(Nc2c(-c3ccc(C#N)cc3Cl)c(C)nn2C)c([N+](=O)[O-])c1 [compound 124] — higher, 99%
- Cc1nn(C)c(Nc2c(Br)cccc2[N+](=O)[O-])c1-c1ccc(C#N)cc1Cl [compound 125] — lower, 0%
- Cc1nn(C)c(Nc2ccccc2[N+](=O)[O-])c1-c1ccc(F)cc1Cl [compound 126] — higher, 96%
- CCc1nn(C)c(Nc2c(Cl)cc(Br)cc2[N+](=O)[O-])c1-c1ccc(F)cc1Cl [compound 128] — higher, 96%
- Cc1nn(C)c(Nc2cc(Cl)ccc2[N+](=O)[O-])c1-c1ccc(F)cc1Cl [compound 130] — lower, 20%

tested on: Phakopsora pachyrhizi; experiment: Test D: Asian soybean rust, preventive spray on soybean seedlings; type: in vivo; conditions: 50 ppm, 100 = 100% disease control, 0 = no control
Outline: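 Compounds in acetone/water (50/50) with 250 ppm PEG400, dosed in ppm, sprayed to run-off on soybean seedlings; inoculated with P. pachyrhizi spores next day. Held 24 h at 22 °C in saturated air, then 8 days at 22 °C; visual rating of disease control, 0–100, relative to untreated controls.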

Point of comparison: Cc1nn(C)c(Nc2ccccc2[N+](=O)[O-])c1-c1ccc(F)cc1Cl [compound 126], “Test D disease control rating” value 0%. Against it:
- Cc1nn(C)c(Nc2c(F)cccc2[N+](=O)[O-])c1-c1c(F)cc(C#N)cc1F [compound 114] — higher, 73%
- Cc1nn(C)c(Nc2c(F)cc(Cl)cc2[N+](=O)[O-])c1-c1ccc(C#N)cc1Cl [compound 115] — higher, 77%
- Cc1nn(C)c(Nc2c(Cl)cc(Cl)cc2[N+](=O)[O-])c1-c1ccc(C#N)cc1Cl [compound 116] — the same, 0%
- Cc1cccc([N+](=O)[O-])c1Nc1c(-c2ccc(F)cc2Cl)c(C)nn1C [compound 117] — the same, 0%
- COc1ccc(Nc2c(-c3ccc(F)cc3Cl)c(C)nn2C)c([N+](=O)[O-])c1 [compound 119] — higher, 92%
- Cc1nn(C)c(Nc2c(F)cc(F)cc2[N+](=O)[O-])c1-c1ccc(C#N)cc1Cl [compound 120] — higher, 44%
- Cn1nc(C#N)c(-c2ccc(F)cc2Cl)c1Nc1c(F)cccc1[N+](=O)[O-] [compound 122] — the same, 0%
- Cc1nn(C)c(Nc2c(Cl)cccc2[N+](=O)[O-])c1-c1ccc(C#N)cc1Cl [compound 123] — the same, 0%
- COc1ccc(Nc2c(-c3ccc(C#N)cc3Cl)c(C)nn2C)c([N+](=O)[O-])c1 [compound 124] — higher, 25%
- Cc1nn(C)c(Nc2c(Br)cccc2[N+](=O)[O-])c1-c1ccc(C#N)cc1Cl [compound 125] — the same, 0%
- CCc1nn(C)c(Nc2c(Cl)cc(Br)cc2[N+](=O)[O-])c1-c1ccc(F)cc1Cl [compound 128] — higher, 31%
- Cc1nn(C)c(Nc2cc(Cl)ccc2[N+](=O)[O-])c1-c1ccc(F)cc1Cl [compound 130] — the same, 0%

tested on: Botrytis cinerea; experiment: Test E: tomato Botrytis, preventive spray on tomato seedlings; type: in vivo; conditions: 50 ppm, 100 = 100% disease control, 0 = no control
Outline: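 Compound suspended in 50/50 acetone/water with 250 ppm PEG400 surfactant and sprayed to run-off on tomato seedlings; Botrytis cinerea spores applied the next day. Incubation 48 h at 20° C in saturated atmosphere, then 3 days at 24° C. Visual rating 0–100% disease control relative to controls.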

Point of comparison: Cc1nn(C)c(Nc2c(Br)cccc2[N+](=O)[O-])c1-c1ccc(C#N)cc1Cl [compound 125], “Test E disease control rating” value 99%. Against it:
- Cc1nn(C)c(Nc2c(F)cccc2[N+](=O)[O-])c1-c1c(F)cc(C#N)cc1F [compound 114] — higher, 100%
- Cc1nn(C)c(Nc2c(F)cc(Cl)cc2[N+](=O)[O-])c1-c1ccc(C#N)cc1Cl [compound 115] — the same, 99%
- Cc1nn(C)c(Nc2c(Cl)cc(Cl)cc2[N+](=O)[O-])c1-c1ccc(C#N)cc1Cl [compound 116] — lower, 63%
- Cc1cccc([N+](=O)[O-])c1Nc1c(-c2ccc(F)cc2Cl)c(C)nn1C [compound 117] — the same, 99%
- COc1ccc(Nc2c(-c3ccc(F)cc3Cl)c(C)nn2C)c([N+](=O)[O-])c1 [compound 119] — higher, 100%
- Cc1nn(C)c(Nc2c(F)cc(F)cc2[N+](=O)[O-])c1-c1ccc(C#N)cc1Cl [compound 120] — higher, 100%
- Cn1nc(C#N)c(-c2ccc(F)cc2Cl)c1Nc1c(F)cccc1[N+](=O)[O-] [compound 122] — higher, 100%
- Cc1nn(C)c(Nc2c(Cl)cccc2[N+](=O)[O-])c1-c1ccc(C#N)cc1Cl [compound 123] — higher, 100%
- COc1ccc(Nc2c(-c3ccc(C#N)cc3Cl)c(C)nn2C)c([N+](=O)[O-])c1 [compound 124] — higher, 100%
- Cc1nn(C)c(Nc2ccccc2[N+](=O)[O-])c1-c1ccc(F)cc1Cl [compound 126] — higher, 100%
- CCc1nn(C)c(Nc2c(Cl)cc(Br)cc2[N+](=O)[O-])c1-c1ccc(F)cc1Cl [compound 128] — the same, 99%
- Cc1nn(C)c(Nc2cc(Cl)ccc2[N+](=O)[O-])c1-c1ccc(F)cc1Cl [compound 130] — lower, 85%

tested on: Alternaria solani; experiment: Test F: tomato early blight, preventive spray on tomato seedlings; type: in vivo; conditions: 50 ppm, 100 = 100% disease control, 0 = no control
Outline: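 Tomato seedlings were sprayed to run-off with compound suspended in acetone/water (50/50) with 250 ppm PEG400 and inoculated with Alternaria solani spores the next day. Plants were held 48 h at 27 °C in saturated humidity, then 3 days at 20 °C. Disease control was rated visually from 0 to 100 against untreated controls.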

Point of comparison: Cc1nn(C)c(Nc2c(F)cccc2[N+](=O)[O-])c1-c1c(F)cc(C#N)cc1F [compound 114], “Test F disease control rating” value 99%. Against it:
- Cc1nn(C)c(Nc2c(F)cc(Cl)cc2[N+](=O)[O-])c1-c1ccc(C#N)cc1Cl [compound 115] — the same, 99%
- Cc1nn(C)c(Nc2c(Cl)cc(Cl)cc2[N+](=O)[O-])c1-c1ccc(C#N)cc1Cl [compound 116] — lower, 82%
- Cc1cccc([N+](=O)[O-])c1Nc1c(-c2ccc(F)cc2Cl)c(C)nn1C [compound 117] — lower, 76%
- COc1ccc(Nc2c(-c3ccc(F)cc3Cl)c(C)nn2C)c([N+](=O)[O-])c1 [compound 119] — the same, 99%
- Cc1nn(C)c(Nc2c(F)cc(F)cc2[N+](=O)[O-])c1-c1ccc(C#N)cc1Cl [compound 120] — the same, 99%
- Cn1nc(C#N)c(-c2ccc(F)cc2Cl)c1Nc1c(F)cccc1[N+](=O)[O-] [compound 122] — the same, 99%
- Cc1nn(C)c(Nc2c(Cl)cccc2[N+](=O)[O-])c1-c1ccc(C#N)cc1Cl [compound 123] — lower, 66%
- COc1ccc(Nc2c(-c3ccc(C#N)cc3Cl)c(C)nn2C)c([N+](=O)[O-])c1 [compound 124] — the same, 99%
- Cc1nn(C)c(Nc2c(Br)cccc2[N+](=O)[O-])c1-c1ccc(C#N)cc1Cl [compound 125] — lower, 9%
- Cc1nn(C)c(Nc2ccccc2[N+](=O)[O-])c1-c1ccc(F)cc1Cl [compound 126] — lower, 68%
- CCc1nn(C)c(Nc2c(Cl)cc(Br)cc2[N+](=O)[O-])c1-c1ccc(F)cc1Cl [compound 128] — lower, 33%
- Cc1nn(C)c(Nc2cc(Cl)ccc2[N+](=O)[O-])c1-c1ccc(F)cc1Cl [compound 130] — lower, 0%
